Measurements taken from US20230085307A1, “PYRIDAZINONE COMPOUND AND HERBICIDE” (NISSAN CHEMICAL CORPORATION, priority 2019, published 2023).

Key:
[1] = system: wild oat; test: Test Example 4: herbicidal effect by soil treatment (Table 19, symbol I); assay type: in vivo, wild oat (Avena fatua); conditions: amount of applied herbicide 320 g/ha
Procedure, shortened: (§1)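 Emulsion of test compound, water-diluted to predetermined amount, sprayed on soil after sowing (seed depth ~1.5 cm, sterilized diluvial soil). Greenhouse, 25–30° C. Effect graded at three weeks post-spray.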

[2] = system: rice flat sedge; test: Test Example 3: herbicidal effect by foliage application, Wagner pot (Table 18, symbol E); assay type: in vivo, rice flat sedge (Cyperus iria); conditions: amount of applied herbicide 320 g/ha
Procedure, shortened: (§2)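 Plants were sown in alluvial soil held under 0.1–0.5 cm standing water and grown 14 days in a greenhouse at 25–30 °C. An emulsifiable formulation, water-diluted to the set dose, was then sprayed onto the foliage, and effects were scored three weeks later using previously defined criteria.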

[3] = system: green foxtail; test: Test Example 5: herbicidal effect by foliage application, plastic box (Table 20, symbol G); assay type: in vivo, green foxtail (Setaria viridis); conditions: foliage application, 320 g/ha, evaluated three weeks after application
Procedure, shortened: (§3)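 Post-emergence foliar test in sterilized diluvial soil. Compound applied as water-diluted emulsion at a predetermined rate to 14-day-old plants; evaluation at three weeks.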

[4] = system: lambsquarters; test: Test Example 4: herbicidal effect by soil treatment (Table 19, symbol O); assay type: in vivo, lambsquarters (Chenopodium album); conditions: amount of applied herbicide 320 g/ha
Procedure, shortened: as §1

[5] = system: Japanese bulrush; test: Test Example 1: herbicidal activity, application before weed generation under submerged conditions (Table 16, symbol B); assay type: in vivo, Japanese bulrush (Schoenoplectus juncoides); conditions: 320 g/ha applied herbicide
Procedure, shortened: (§4)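 Alluvial soil was flooded to 4 cm depth, weed seeds were sown mixed and 2.5-leaf rice seedlings were transplanted. On sowing day, the compound's emulsion, diluted in water to a set dose, was applied to the water surface. Plants grew at 25–30 °C and were scored 0–5 after three weeks.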

[6] = system: southern crabgrass; test: Test Example 4: herbicidal effect by soil treatment (Table 19, symbol F); assay type: in vivo, southern crabgrass (Digitaria ciliaris); conditions: amount of applied herbicide 320 g/ha
Procedure, shortened: as §1

[7] = system: Chinese sprangletop; test: Test Example 3: herbicidal effect by foliage application, Wagner pot (Table 18, symbol D); assay type: in vivo, chinese sprangletop (Leptochloa chinensis); conditions: amount of applied herbicide 320 g/ha
Procedure, shortened: as §2

[8] = system: barnyard grass; test: Test Example 3: herbicidal effect by foliage application, Wagner pot (Table 18, symbol H); assay type: in vivo, barnyard grass (Echinochloa crus-galli); conditions: amount of applied herbicide 320 g/ha
Procedure, shortened: as §2

[9] = system: southern crabgrass; test: Test Example 5: herbicidal effect by foliage application, plastic box (Table 20, symbol F); assay type: in vivo, southern crabgrass (Digitaria ciliaris); conditions: foliage application, 320 g/ha, evaluated three weeks after application
Procedure, shortened: as §3

[10] = system: lambsquarters; test: Test Example 5: herbicidal effect by foliage application, plastic box (Table 20, symbol O); assay type: in vivo, lambsquarters (Chenopodium album); conditions: foliage application, 320 g/ha, evaluated three weeks after application
Procedure, shortened: as §3

[11] = system: green foxtail; test: Test Example 4: herbicidal effect by soil treatment (Table 19, symbol G); assay type: in vivo, green foxtail (Setaria viridis); conditions: amount of applied herbicide 320 g/ha
Procedure, shortened: as §1

[12] = system: oval-leafed pondweed; test: Test Example 1: herbicidal activity, application before weed generation under submerged conditions (Table 16, symbol C); assay type: in vivo, oval-leafed pondweed (Monochoria vaginalis); conditions: 320 g/ha applied herbicide
Procedure, shortened: as §4

[13] = system: velvetleaf; test: Test Example 4: herbicidal effect by soil treatment (Table 19, symbol M); assay type: in vivo, velvetleaf (Abutilon theophrasti); conditions: amount of applied herbicide 320 g/ha
Procedure, shortened: as §1

[14] = system: chickweed; test: Test Example 5: herbicidal effect by foliage application, plastic box (Table 20, symbol P); assay type: in vivo, common chickweed (Stellaria media); conditions: foliage application, 320 g/ha, evaluated three weeks after application
Procedure, shortened: as §3

[15] = system: redroot pigweed; test: Test Example 5: herbicidal effect by foliage application, plastic box (Table 20, symbol N); assay type: in vivo, redroot pigweed (Amaranthus retroflexus); conditions: foliage application, 320 g/ha, evaluated three weeks after application
Procedure, shortened: as §3

[16] = system: persian speedwell; test: Test Example 5: herbicidal effect by foliage application, plastic box (Table 20, symbol R); assay type: in vivo, Persian speedwell (Veronica persica); conditions: foliage application, 320 g/ha, evaluated three weeks after application
Procedure, shortened: as §3

[17] = system: barnyard grass; test: Test Example 5: herbicidal effect by foliage application, plastic box (Table 20, symbol H); assay type: in vivo, barnyard grass (Echinochloa crus-galli); conditions: foliage application, 320 g/ha, evaluated three weeks after application
Procedure, shortened: as §3

[18] = system: wild oat; test: Test Example 5: herbicidal effect by foliage application, plastic box (Table 20, symbol I); assay type: in vivo, wild oat (Avena fatua); conditions: foliage application, 320 g/ha, evaluated three weeks after application
Procedure, shortened: as §3

[19] = system: windgrass; test: Test Example 4: herbicidal effect by soil treatment (Table 19, symbol L); assay type: in vivo, windgrass (Apera spica-venti); conditions: amount of applied herbicide 320 g/ha
Procedure, shortened: as §1

[20] = system: Italian ryegrass; test: Test Example 5: herbicidal effect by foliage application, plastic box (Table 20, symbol K); assay type: in vivo, Italian ryegrass (Lolium multiflorum); conditions: foliage application, 320 g/ha, evaluated three weeks after application
Procedure, shortened: as §3

[21] = system: blackgrass; test: Test Example 5: herbicidal effect by foliage application, plastic box (Table 20, symbol J); assay type: in vivo, blackgrass (Alopecurus myosuroides); conditions: foliage application, 320 g/ha, evaluated three weeks after application
Procedure, shortened: as §3

[22] = system: velvetleaf; test: Test Example 5: herbicidal effect by foliage application, plastic box (Table 20, symbol M); assay type: in vivo, velvetleaf (Abutilon theophrasti); conditions: foliage application, 320 g/ha, evaluated three weeks after application
Procedure, shortened: as §3

[23] = system: windgrass; test: Test Example 5: herbicidal effect by foliage application, plastic box (Table 20, symbol L); assay type: in vivo, windgrass (Apera spica-venti); conditions: foliage application, 320 g/ha, evaluated three weeks after application
Procedure, shortened: as §3

[24] = system: Italian ryegrass; test: Test Example 4: herbicidal effect by soil treatment (Table 19, symbol K); assay type: in vivo, Italian ryegrass (Lolium multiflorum); conditions: amount of applied herbicide 320 g/ha
Procedure, shortened: as §1

[25] = system: late watergrass; test: Test Example 1: herbicidal activity, application before weed generation under submerged conditions (Table 16, symbol A); assay type: in vivo, late watergrass (Echinochloa oryzicola); conditions: 320 g/ha applied herbicide
Procedure, shortened: as §4

[26] = system: persian speedwell; test: Test Example 4: herbicidal effect by soil treatment (Table 19, symbol R); assay type: in vivo, Persian speedwell (Veronica persica); conditions: amount of applied herbicide 320 g/ha
Procedure, shortened: as §1

[27] = system: barnyard grass; test: Test Example 4: herbicidal effect by soil treatment (Table 19, symbol H); assay type: in vivo, barnyard grass (Echinochloa crus-galli); conditions: amount of applied herbicide 320 g/ha
Procedure, shortened: as §1

[28] = system: redroot pigweed; test: Test Example 4: herbicidal effect by soil treatment (Table 19, symbol N); assay type: in vivo, redroot pigweed (Amaranthus retroflexus); conditions: amount of applied herbicide 320 g/ha
Procedure, shortened: as §1

[29] = system: blackgrass; test: Test Example 4: herbicidal effect by soil treatment (Table 19, symbol J); assay type: in vivo, blackgrass (Alopecurus myosuroides); conditions: amount of applied herbicide 320 g/ha
Procedure, shortened: as §1

[30] = system: chickweed; test: Test Example 4: herbicidal effect by soil treatment (Table 19, symbol P); assay type: in vivo, common chickweed (Stellaria media); conditions: amount of applied herbicide 320 g/ha
Procedure, shortened: as §1

Row | SMILES | herbicidal effect on I: wild oat [1] | herbicidal effect on E: rice flat sedge [2] | herbicidal effect on G: green foxtail (criteria 0-5) [3] | herbicidal effect on O: lambsquarters [4] | Herbicidal effect on B: Japanese bulrush (grade 0-5) [5] | herbicidal effect on F: southern crabgrass [6] | herbicidal effect on D: Chinese sprangletop [7] | herbicidal effect on H: barnyard grass [8] | herbicidal effect on F: southern crabgrass (criteria 0-5) [9] | herbicidal effect on O: lambsquarters (criteria 0-5) [10] | herbicidal effect on G: green foxtail [11] | Herbicidal effect on C: oval-leafed pondweed (grade 0-5) [12] | herbicidal effect on M: velvetleaf [13] | herbicidal effect on P: chickweed (criteria 0-5) [14] | herbicidal effect on N: redroot pigweed (criteria 0-5) [15] | herbicidal effect on R: persian speedwell (criteria 0-5) [16] | herbicidal effect on H: barnyard grass (criteria 0-5) [17] | herbicidal effect on I: wild oat (criteria 0-5) [18] | herbicidal effect on L: windgrass [19] | herbicidal effect on K: Italian ryegrass (criteria 0-5) [20] | further results
1 | CCCC(=O)Oc1c(C)nn(C)c(=O)c1-c1c(-c2cccc(OC(C)(C)C)c2)sc2ccc(F)cc12 [2-224] | 0 (Herbicidal rate of 5% or less (almost no effect)) | 3 (Herbicidal rate of 40% or more and less than 70%) | 1 (Herbicidal rate of 5% or more and less than 20%) | 0 (Herbicidal rate of 5% or less (almost no effect)) | 0 (Herbicidal rate of 5% or less (almost no effect)) | 0 (Herbicidal rate of 5% or less (almost no effect)) | 4 (Herbicidal rate of 70% or more and less than 90%) | 4 (Herbicidal rate of 70% or more and less than 90%) | 0 (Herbicidal rate of 5% or less (almost no effect)) | 3 (Herbicidal rate of 40% or more and less than 70%) | 0 (Herbicidal rate of 5% or less (almost no effect)) | 0 (Herbicidal rate of 5% or less (almost no effect)) | 0 (Herbicidal rate of 5% or less (almost no effect)) | 5 (Herbicidal rate of 90% or more (almost completely withered)) | 2 (Herbicidal rate of 20% or more and less than 40%) | 5 (Herbicidal rate of 90% or more (almost completely withered)) | 3 (Herbicidal rate of 40% or more and less than 70%) | 0 (Herbicidal rate of 5% or less (almost no effect)) | 0 (Herbicidal rate of 5% or less (almost no effect)) | 0 (Herbicidal rate of 5% or less (almost no effect)) | herbicidal effect on J: blackgrass (criteria 0-5) [21]: 0 (Herbicidal rate of 5% or less (almost no effect)); herbicidal effect on M: velvetleaf (criteria 0-5) [22]: 3 (Herbicidal rate of 40% or more and less than 70%); herbicidal effect on L: windgrass (criteria 0-5) [23]: 0 (Herbicidal rate of 5% or less (almost no effect)); herbicidal effect on K: Italian ryegrass [24]: 0 (Herbicidal rate of 5% or less (almost no effect)); Herbicidal effect on A: late watergrass (grade 0-5) [25]: 5 (Herbicidal rate of 90% or more (almost completely withered)); herbicidal effect on R: persian speedwell [26]: 4 (Herbicidal rate of 70% or more and less than 90%); herbicidal effect on H: barnyard grass [27]: 0 (Herbicidal rate of 5% or less (almost no effect)); herbicidal effect on N: redroot pigweed [28]: 0 (Herbicidal rate of 5% or less (almost no effect)); herbicidal effect on J: blackgrass [29]: 0 (Herbicidal rate of 5% or less (almost no effect)); herbicidal effect on P: chickweed [30]: 0 (Herbicidal rate of 5% or less (almost no effect))
2 | CCCC(=O)Oc1c(C)nn(C)c(=O)c1-c1c(-c2cccc(C(F)(F)F)c2)sc2ccc(F)cc12 [2-232] | 0 (Herbicidal rate of 5% or less (almost no effect)) | 5 (Herbicidal rate of 90% or more (almost completely withered)) | 0 (Herbicidal rate of 5% or less (almost no effect)) | 0 (Herbicidal rate of 5% or less (almost no effect)) | 0 (Herbicidal rate of 5% or less (almost no effect)) | 0 (Herbicidal rate of 5% or less (almost no effect)) | 5 (Herbicidal rate of 90% or more (almost completely withered)) | 4 (Herbicidal rate of 70% or more and less than 90%) | 0 (Herbicidal rate of 5% or less (almost no effect)) | 3 (Herbicidal rate of 40% or more and less than 70%) | 0 (Herbicidal rate of 5% or less (almost no effect)) | 0 (Herbicidal rate of 5% or less (almost no effect)) | 0 (Herbicidal rate of 5% or less (almost no effect)) | 5 (Herbicidal rate of 90% or more (almost completely withered)) | 5 (Herbicidal rate of 90% or more (almost completely withered)) | 5 (Herbicidal rate of 90% or more (almost completely withered)) | 0 (Herbicidal rate of 5% or less (almost no effect)) | 0 (Herbicidal rate of 5% or less (almost no effect)) | 0 (Herbicidal rate of 5% or less (almost no effect)) | 0 (Herbicidal rate of 5% or less (almost no effect)) | herbicidal effect on J: blackgrass (criteria 0-5) [21]: 0 (Herbicidal rate of 5% or less (almost no effect)); herbicidal effect on M: velvetleaf (criteria 0-5) [22]: 5 (Herbicidal rate of 90% or more (almost completely withered)); herbicidal effect on L: windgrass (criteria 0-5) [23]: 1 (Herbicidal rate of 5% or more and less than 20%); herbicidal effect on K: Italian ryegrass [24]: 0 (Herbicidal rate of 5% or less (almost no effect)); Herbicidal effect on A: late watergrass (grade 0-5) [25]: 3 (Herbicidal rate of 40% or more and less than 70%); herbicidal effect on R: persian speedwell [26]: 3 (Herbicidal rate of 40% or more and less than 70%); herbicidal effect on H: barnyard grass [27]: 0 (Herbicidal rate of 5% or less (almost no effect)); herbicidal effect on N: redroot pigweed [28]: 0 (Herbicidal rate of 5% or less (almost no effect)); herbicidal effect on J: blackgrass [29]: 0 (Herbicidal rate of 5% or less (almost no effect)); herbicidal effect on P: chickweed [30]: 3 (Herbicidal rate of 40% or more and less than 70%)
